Test results from patent US4331666A, “3-[(8-Carboxy-6-tetraz olo[1,5-b]pyridazinyl)-thiomethyl]-7-[2-(2-amino-4-thiazolyl)-2-methoxyim ino-acetamido]-3-cephem-4-carboxylic acid” (Farmitalia Carlo Erba S.p.A., priority 1979, dated 1982).
Like-named read-outs stand apart in the source and are kept apart here.

What was measured:
[1] = test system: Gram-negative bacteria; assay: antibacterial activity against most Gram-negative bacteria (compared with Cefazolin and Cefuroxime); type: cell-based
[2] = test system: 10 strains of Pseudomonas aeruginosa, 4 strains of Proteus vulgaris and 4 strains of Proteus morganii; assay: test on a series of strains of Pseudomonas aeruginosa, Proteus vulgaris and Proteus morganii; type: cell-based; conditions: 10 strains Pseudomonas aeruginosa, 4 strains Proteus vulgaris, 4 strains Proteus morganii
[3] = test system: streptococci; type: cell-based
[4] = test system: Pseudomonas aeruginosa G.; assay: in vitro activity against Pseudomonas aeruginosa G.; type: cell-based
[5] = test system: mice infected with Escherichia coli G, Klebsiella pneumoniae ATCC 10031, Proteus mirabilis ATCC 9921, Escherichia coli Tem., Haemophilus influenzae Salmonella …; assay: in vivo activity in infected mice; conditions: in words
[6] = approximate acute toxicity (LD50) in the mouse; conditions: in vivo, single intravenous administrations of increasing doses, measured on the seventh day
Source text: The toxicity of the compounds of the invention is quite negligible and therefore they can be safely used in therapy. […] Analogous activity and toxicity data have been found for the other compounds of the invention.

[7] = test system: Bacteroides fragilis VPL 9032; assay: in vitro activity against Bacteroides fragilis VPL 9032; type: cell-based
[8] = plasma half-life in the mouse after intravenous injection; conditions: in vivo
[9] = plasma half-life in the rat after intravenous injection; conditions: in vivo

SMILES | times more active than Cefazolin and Cefuroxime against most Gram-negative bacteria ([1]; ratio vs Cefazolin and Cefuroxime) | activity compared with Cefazolin and Cefuroxime [2] | times more active than Cefazolin against streptococci ([3]; ratio vs Cefazolin, streptococci) | in vitro activity [4] | activity in vivo tests [5] | LD50 at 168 h [6] | times more active than Cefazolin against most Gram-negative bacteria ([1]; ratio vs Cefazolin) | times more active than Cefuroxime against most Gram-negative bacteria ([1]; ratio vs Cefuroxime) | in vitro activity [7] | half-life [8] | times more active than Cefazolin against streptococci [3] | half-life [9]
CON=C(C(=O)NC1C(=O)N2C(C(=O)O)=C(CSc3cc(N)c4nnnn4n3)CSC12)c1csc(N)n1 (stereo not drawn) [FCE 20127, 3-[(8-amino-6-tetrazolo[1,5-b]pyridazinyl)-thiomethyl]-7-[2-(2-amino-4-thiazolyl)-2-methoxyiminoacetamido]-3-cephem-4-carboxylic acid (syn-isomer)] | about 30 times | several times more active than Cefazolin and Cefuroxime | about 24 times | – | – | – | – | – | – | – | – | –
CON=C(C(=O)NC1C(=O)N2C(C(=O)O)=C(CSc3cc(C(=O)O)c4nnnn4n3)CSC12)c1csc(N)n1 (stereo not drawn) [FCE 20485, 3-[(8-carboxy-6-tetrazolo[1,5-b]pyridazinyl)-thiomethyl]-7-[2-(2-amino-4-thiazolyl)-2-methoxyiminoacetamido]-3-cephem-4-carboxylic acid (syn-isomer)] | – | – | – | significant in vitro activity | high activity | > 2000 mg/kg | about 32 times | ~40 times | significant in vitro activity | ~1.5 h | about 5 times | ~1.67 h
